The text below walks through data of patent US20250179047A1, “5-[7-(3,4-DIHYDRO-1H-ISOQUINOLINE-2-CARBONYL)-1,2,3,4 TETRAHYDROISOQUINOLIN-6-YL]-1H-PYRROLE-3-CARBOXAMIDE DERIVATIVES, PHARMACEUTICAL COMPOSITIONS CONTAINING THEM AND THEIR USES AS PRO-APOPTOTIC AGENTS” (LES LABORATOIRES SERVIER, priority 2022, published 2025).

For one test, the target named is BCL2 WT (Homo sapiens (Human), UniProt P10415). The test can be described thus: TR-FRET competitive binding assay, BCL2 WT. The following applies: Ki determined from IC50, read-out: TR_FRET EKI_Bcl2 WT. The gist of the method:
(§1)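 Ki derived from IC50 (11-point dilution, 520/495 nm emission ratio) for displacing a fluorescein-labelled PUMA peptide (2 or 20 nM). Target was 0.5 nM E. coli-expressed Halo-tagged BCL2 (1-207) or BCLXL (2-196), terbium-labelled on Halo. Incubation 2 h at 23°C in pH 7.5 Hepes with 150 mM NaCl and 5% DMSO.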
(Time-resolved FRET reads energy transfer from a long-lived donor to a nearby acceptor.)

The target in test [1] is BCL2 G101V (Homo sapiens, UniProt P10415, G101V). Kind of test: TR-FRET competitive binding assay, BCL2 G101V. As to conditions: BCL2 G101V; Ki determined from IC50; read-out: TR_FRET EKI_Bcl2 G101V. The gist of the method:
as §1

The subject of test [2] is BCL2 G101V. The test can be described thus: TR-FRET competitive binding assay, BCL2 G101V. Details: species or system human. The following applies: ratio Ki BCL2 G101V / Ki BCL2 WT. In short, it runs like this:
as §1

Another test has as its target BCL2 D103Y (Homo sapiens, UniProt P10415, D103Y). Kind of test: TR-FRET competitive binding assay, BCL2 D103Y. The following applies: Ki determined from IC50, read-out: TR_FRET EKI_Bcl2 D103Y. In short, it runs like this:
as §1

In the next test the target is BCL2 F104I (Homo sapiens, UniProt P10415, F104I). The test can be described thus: TR-FRET competitive binding assay, BCL2 F104I. As to conditions: Ki determined from IC50, read-out: TR_FRET EKI_Bcl2 F104I. Here is the method: (§2) The relative binding potency of each compound was determined in a competitive binding assay using time resolved-fluorescence resonance energy transfer (TR-FRET). The method utilised a fluorescein labelled peptide derived from PUMA (5Flu-Ahx-[…]-NH2 wherein Ahx means 6-hexanoic acid monomer and the amino acid sequence is referred to as SEQ ID:01) which binds to a terbium labelled BCL2 or BCLXL protein. The degree of binding or corresponding compound inhibition can be quantified by the TR-FRET signal between the terbium donor and fluorescein acceptor.
(§3) The human BCL2_wild-type (also named BCL2_wt), BCL2_G101V mutant and BCLXL_wild-type were E. coli expressed as a N-terminal Halo-fusion proteins and singly labelled with Terbium on the Halo protein to afford the following amino acid sequences:
(§4) wherein the BCL2(1-207) sequence corresponds to UniProtKB® primary accession number P10415 and the BCLXL(2-196) sequence corresponds to UniProtKB® primary accession number Q07817-1.
(§5) The assay was performed in a 40 μL volume in white 384-standard well plates (Corning #3574). An 11-point serial dilution of each compound was prepared in DMSO and transferred directly to plate followed by addition of fluorescein labelled peptide and lastly protein. Final assay conditions were 0.5 nM BCL2_wt, BCL2_G101V, BCL2_D103Y, BCL2_F104I, BCL2_D111A or BCLXL_wt, 2 or 20 nM fluorescein labelled peptide, 50 mM Hepes pH 7.5, 150 mM NaCl, 0.5 mM TCEP (Tris(2-carboxyethyl)phosphine), 0.05% Tween 20, 5% DMSO. The mixture was incubated for 2 hours at 23° C.
(§6) TR-FRET measurements were performed on a Biotek Synergy Neo plate reader. TR-FRET was measured by excitation of the Terbium-donor at 340 nm and subsequent (delay time 100 μs) measurement of terbium and fluorescein emission at 495 nm and 520 nm, respectively, over a collection time of 300 μs. The TR-FRET signal was calculated as the emission-ratio at 520 nm over 495 nm.
(§7) The TR-FRET ratio readout for test compounds was normalized against 0% inhibition controls wells and 100% inhibition control wells. Test compound potency (IC50) was estimated by nonlinear regression using the sigmoidal dose-response (variable slope) using Xlfit 4 (IDBS, Guildford, Surrey, UK, model 205). Were the IC50 could not be determined the % inhibition at the highest tested concentration is given.
(§8) y=(A+((B−A)/(1+((C/x)^D))))
(§9) where y is the normalized TR-TRET ratio measurement for a given concentration of test compound, x is the concentration of test compound, A is the estimated efficacy (% inhibition) at infinite compound dilution, and B is the maximal efficacy (% inhibition). C is the IC50 value and D is the Hill slope coefficient.
(§10) The K1 values were determined from the IC50 values according to Cer et al, Nucleic Acids Res, 2009, July 1; 37 (WebServer issue): W441-W445.

Another test addresses BCL2 D111A (Homo sapiens, UniProt P10415, D111A). Kind of test: TR-FRET competitive binding assay, BCL2 D111A. As to conditions: Ki determined from IC50, read-out: TR_FRET EKI_Bcl2 D111A. Here is the method:
as §2, §3, §4, §5, §6, §7, §8, §9, §10

Another test concerns the target BCLXL WT (Homo sapiens (Human), UniProt Q07817). Kind of test: TR-FRET competitive binding assay, BCLXL WT. As to conditions: for Ki: BCLXL WT, Ki determined from IC50, read-out: TR_FRET EKI BclxL; for TR_FRET EKI BCLxL/WT selectivty ratio: ratio Ki BCLxL / Ki BCL2 WT. The gist of the method:
as §1

The next test has as its system KMS-12-PE Bcl-2 WT. The test can be described thus: In vitro cytotoxicity CellTiter-Glo 48 h, KMS-12-PE Bcl-2 WT. It is filed as cell-based. As to conditions: Homo sapiens, KMS-12-PE, C50 = concentration needed to reach 50% of the cellular viability. The gist of the method:
(§11)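 KMS-12-PE myeloma cells were lentivirally transduced with wild-type or G101V-mutant Bcl-2 and sorted by TagRFP. They were exposed to compounds as 11-point dose responses for 48 h at 37 °C, 5% CO2. Viability was read by CellTiter-Glo ATP luminescence, and C50 was the concentration giving 50% viability.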
For orientation: Cellular ATP, detected with luciferase, serves as a proxy for viable cell number.

Another test has as its system KMS-12-PE Bcl-2 G101V. Kind of test: In vitro cytotoxicity CellTiter-Glo 48 h, KMS-12-PE Bcl-2 G101V. The test is classed as cell-based. As to conditions: for Ratio (G101V/WT): C50 KMS-12-PE Bcl-2 G101V over C50 KMS-12-PE Bcl-2 WT; for IC50: 48 h, CellTiter-Glo, C50 = concentration needed to reach 50% of the cellular viability. In short, it runs like this:
as §11

Sequence of BCLXL WT (Q07817 other isoform, or with tags, fused parts or gaps): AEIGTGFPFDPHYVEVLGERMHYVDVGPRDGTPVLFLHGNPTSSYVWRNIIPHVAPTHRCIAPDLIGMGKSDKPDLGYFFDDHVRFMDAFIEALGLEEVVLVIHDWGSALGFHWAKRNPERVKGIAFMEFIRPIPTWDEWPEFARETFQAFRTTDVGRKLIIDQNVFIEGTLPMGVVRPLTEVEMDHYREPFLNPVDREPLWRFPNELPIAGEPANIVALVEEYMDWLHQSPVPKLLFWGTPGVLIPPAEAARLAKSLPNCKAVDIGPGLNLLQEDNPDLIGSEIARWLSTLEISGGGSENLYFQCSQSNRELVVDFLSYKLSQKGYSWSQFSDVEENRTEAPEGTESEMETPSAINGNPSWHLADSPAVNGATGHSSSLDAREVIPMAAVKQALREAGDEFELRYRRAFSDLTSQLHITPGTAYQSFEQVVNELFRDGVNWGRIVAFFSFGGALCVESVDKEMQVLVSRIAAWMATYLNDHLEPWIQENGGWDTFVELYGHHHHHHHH

With `Cc1c(N(C(=O)c2cc(-c3cc4c(cc3C(=O)N3Cc5ccccc5C[C@H]3C)CN(C(=O)Cc3ccc(OCCN5C[C@H](C)O[C@@H](C)C5)cc3)CC4)n(C)c2C)c2ccc(O)cc2)cc(C#N)n1C` (single isomer, unassigned) [Example 42, N-(5-cyano-1,2-dimethyl-1H-pyrrol-3-yl)-5-{2-[2-(4-{2-[(2R or S,6R or S)-2,6-dimethylmorpholin-4-yl]ethoxy}phenyl)acetyl]-7-[(3R)-3-methyl-1,2,3,4-tetrahydroisoquinoline-2-carbonyl]-1,2,3,4-tetrahydroisoquinolin-6-yl}-N-(4-hydroxyphenyl)-1,2-dimethyl-1H-pyrrole-3-carboxamide], the Ki at BCL2 WT was 0.18 nM; on BCL2 G101V [1], 0.3 nM; at BCL2 D103Y, 0.62 nM; on BCL2 F104I it was 0.76 nM; at BCL2 D111A it was 0.36 nM; on BCLXL WT, 3 nM. Also, in the test with BCL2 G101V [2], the “TR_FRET EKI G101V/WT selectivty ratio” value is 1.8. Also, the “TR_FRET EKI BCLxL/WT selectivty ratio” value on BCLXL WT stood at 16.7. For the same compound, the IC50 in the test with KMS-12-PE Bcl-2 WT worked out at 0.0046 µM; in the test on KMS-12-PE Bcl-2 G101V (Homo sapiens, KMS-12-PE), 0.0175 µM. Besides, the “Ratio (G101V/WT)” value in the test on KMS-12-PE Bcl-2 G101V is on record as 3.77.
Turning to `Cc1c(N(C(=O)c2cc(-c3cc4c(cc3C(=O)N3Cc5ccccc5C[C@H]3C)CN(C(=O)Cc3ccc(N5CCC(N6CCOCC6)C5)cc3)CC4)n(C)c2C)c2ccc(O)cc2)cc(C#N)n1C` (single isomer, unassigned) [Example 63, N-(5-cyano-1,2-dimethyl-1H-pyrrol-3-yl)-N-(4-hydroxyphenyl)-1,2-dimethyl-5-{7-[(3R)-3-methyl-1,2,3,4-tetrahydroisoquinoline-2-carbonyl]-2-(2-{4-[(3R or S)-3-(morpholin-4-yl)pyrrolidin-1-yl]phenyl}acetyl)-1,2,3,4-tetrahydroisoquinolin-6-yl}-1H-pyrrole-3-carboxamide], the Ki at BCL2 WT is 0.11 nM; on BCL2 G101V [1], 0.9 nM; on BCL2 D103Y it was 0.46 nM; on BCL2 F104I, 2.84 nM; on BCL2 D111A, 0.42 nM; on BCLXL WT, 1.7 nM. In the test with BCL2 G101V [2], the “TR_FRET EKI G101V/WT selectivty ratio” value was 7.8. The “TR_FRET EKI BCLxL/WT selectivty ratio” value at BCLXL WT is listed as 15.5. Further, the IC50 with KMS-12-PE Bcl-2 WT turned out to be 0.0079 µM; in the test on KMS-12-PE Bcl-2 G101V (Homo sapiens, KMS-12-PE), 0.046 µM. Besides, the “Ratio (G101V/WT)” value in the test with KMS-12-PE Bcl-2 G101V worked out at 5.84.
Consider `Cc1c(N(C(=O)c2cc(-c3cc4c(cc3C(=O)N3Cc5ccccc5C[C@H]3CN3CCCCC3)CN(C(=O)Cc3ccc(OCCN5CCOC(C)C5)cc3F)CC4)n(C)c2C)c2ccc(O)cc2)cc(C#N)n1C` (single isomer, unassigned) [Example 108, N-(5-cyano-1,2-dimethyl-1H-pyrrol-3-yl)-5-[2-(2-{2-fluoro-4-[2-((2S or R)-2-methylmorpholin-4-yl)ethoxy]phenyl}acetyl)-7-[(3S)-3-[(piperidin-1-yl)methyl]-1,2,3,4-tetrahydroisoquinoline-2-carbonyl]-1,2,3,4-tetrahydroisoquinolin-6-yl]-N-(4-hydroxyphenyl)-1,2-dimethyl-1H-pyrrole-3-carboxamide], for which the Ki at BCL2 WT stood at 0.07 nM; on BCL2 G101V [1] it was 0.4 nM; on BCL2 D103Y, 0.14 nM; on BCL2 F104I, 0.19 nM; at BCL2 D111A, 0.16 nM; on BCLXL WT, 2.1 nM. The “TR_FRET EKI G101V/WT selectivty ratio” value with BCL2 G101V [2] is on record as 5.1. In addition, the “TR_FRET EKI BCLxL/WT selectivty ratio” value on BCLXL WT was determined as 30.9. Moreover, the IC50 stood at 0.0066 µM in the test with KMS-12-PE Bcl-2 WT and 0.0383 µM with KMS-12-PE Bcl-2 G101V (Homo sapiens, KMS-12-PE). For the same compound, in the test with KMS-12-PE Bcl-2 G101V, the “Ratio (G101V/WT)” value was found to be 5.85.
Take `Cc1c(N(C(=O)c2cc(-c3cc4c(cc3C(=O)N3Cc5ccccc5C[C@H]3CN3CCCCC3)CN(C(=O)Cc3ccc(OCC(C)N5CCOCC5)cc3)CC4)n(C)c2C)c2ccc(O)cc2)cc(C#N)n1C` (single isomer, unassigned) [Example 127, N-(5-cyano-1,2-dimethyl-1H-pyrrol-3-yl)-N-(4-hydroxyphenyl)-1,2-dimethyl-5-[2-(2-{4-[(2S or R)-2-(morpholin-4-yl)propoxy]phenyl}acetyl)-7-[(3S)-3-[(piperidin-1-yl)methyl]-1,2,3,4-tetrahydroisoquinoline-2-carbonyl]-1,2,3,4-tetrahydroisoquinolin-6-yl]-1H-pyrrole-3-carboxamide]: the Ki on BCL2 WT was found to be 0.05 nM; on BCL2 G101V [1], 0.2 nM; on BCL2 D103Y, 0.16 nM; at BCL2 F104I, 0.26 nM; on BCL2 D111A, 0.13 nM; on BCLXL WT, 3.6 nM. The “TR_FRET EKI G101V/WT selectivty ratio” value in the test on BCL2 G101V [2] is reported as 4.3. In addition, at BCLXL WT, the “TR_FRET EKI BCLxL/WT selectivty ratio” value was found to be 76.6. Also, the IC50 in the test with KMS-12-PE Bcl-2 WT was 0.0077 µM; with KMS-12-PE Bcl-2 G101V, 0.0277 µM. The “Ratio (G101V/WT)” value in the test with KMS-12-PE Bcl-2 G101V is listed as 3.58.
In the case of `Cc1c(N(C(=O)c2cc(-c3cc4c(cc3C(=O)N3Cc5ccccc5C[C@H]3CN3CCCCC3)CN(C(=O)Cc3ccc(OCC(C)N5CCOCC5)cc3F)CC4)n(C)c2C)c2ccc(O)cc2)cc(C#N)n1C` (single isomer, unassigned) [Example 135, N-(5-cyano-1,2-dimethyl-1H-pyrrol-3-yl)-5-[2-(2-{2-fluoro-4-[(2S or R)-2-(morpholin-4-yl)propoxyphenyl}acetyl)-7-[(3S)-3-[(piperidin-1-yl)methyl]-1,2,3,4-tetrahydroisoquinoline-2-carbonyl]-1,2,3,4-tetrahydroisoquinolin-6-yl]-N-(4-hydroxyphenyl)-1,2-dimethyl-1H-pyrrole-3-carboxamide], the Ki on BCL2 WT was determined as 0.07 nM; on BCL2 G101V [1] it was 0.4 nM; on BCL2 D103Y, 0.21 nM; at BCL2 F104I it was 0.34 nM; at BCL2 D111A, 0.17 nM; on BCLXL WT, 4.5 nM. Further, the “TR_FRET EKI G101V/WT selectivty ratio” value with BCL2 G101V [2] is reported as 5.8. Also, the “TR_FRET EKI BCLxL/WT selectivty ratio” value on BCLXL WT amounted to 60.8. Also, the IC50 with KMS-12-PE Bcl-2 WT was 0.0044 µM; in the test on KMS-12-PE Bcl-2 G101V (Homo sapiens, KMS-12-PE), 0.0339 µM. In addition, in the test with KMS-12-PE Bcl-2 G101V, the “Ratio (G101V/WT)” value is given as 7.72.

A word on the IC50: it is the midpoint of a concentration-inhibition curve. The low end stands for greater potency in that assay, the high end for weaker potency in that assay.
